Data published in PubChem BioAssay (NCI).
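Five compound concentrations were applied to cells in 96-well plates for 48 hours; endpoints were derived by simple linear interpolation of the resulting dose-response curve. GI50: concentration for 50% inhibition of growth. TGI marks complete inhibition of growth.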

Legend:
Assay in all cases: NCI-60 cell line screen, 48 h
UACC-257 melanoma = tested on: UACC-257 melanoma
NCI-H460 lung = tested on: NCI-H460 lung
RPMI-8226 leukemia = tested on: RPMI-8226 leukemia
SF-295 CNS = tested on: SF-295 CNS
PC-3 prostate = tested on: PC-3 prostate
CCRF-CEM leukemia = tested on: CCRF-CEM leukemia
EKVX NSCLC = tested on: EKVX NSCLC
BT-549 breast = tested on: BT-549 breast
A549 NSCLC = tested on: A549 NSCLC
HS 578T breast = tested on: HS 578T breast

Row | Structure (SMILES) | TGI (UACC-257 melanoma) [µM] | TGI (NCI-H460 lung) [µM] | TGI (RPMI-8226 leukemia) [µM] | TGI (SF-295 CNS) [µM] | TGI (PC-3 prostate) [µM] | TGI (CCRF-CEM leukemia) [µM] | TGI (EKVX NSCLC) [µM] | TGI (BT-549 breast) [µM] | TGI (A549 NSCLC) [µM] | GI50 (UACC-257 melanoma) [µM] | GI50 (NCI-H460 lung) [µM] | GI50 (RPMI-8226 leukemia) [µM] | GI50 (SF-295 CNS) [µM] | GI50 (EKVX NSCLC) [µM] | GI50 (BT-549 breast) [µM] | GI50 (A549 NSCLC) [µM] | GI50 (HS 578T breast) [µM] | TGI (HS 578T breast) [µM] | GI50 (PC-3 prostate) [µM] | GI50 (CCRF-CEM leukemia) [µM]
1 | Cc1cc(NC(=O)NC(=O)c2ccccc2[N+](=O)[O-])ccc1Oc1ncc(Cl)cn1 | > 100 | 18.8 | > 100 | 29.3 | 94.5 | > 100 | > 100 | 91.5 | > 100 |  |  |  |  |  |  |  |  |  |  | 
2 | COC1OC(COCc2ccc(Cl)cc2)C(OCc2ccc(Cl)cc2)C1O (configuration not stated) | 30.7 | 32 | > 100 | 32.3 |  | 46.7 | 46.3 |  | 37.5 |  |  |  |  |  |  |  |  |  |  | 
3 | COC(=O)C1C(=O)O[C@@H](c2ccc(OC)cc2)C1C(=O)OC (some centres not stated) | > 100 |  | > 100 | > 100 |  | > 100 | > 100 |  | > 100 |  |  |  |  |  |  |  |  |  |  | 
4 | CCCCCCCCC(=O)CCCCCCCCC(=O)O | > 100 | 44.6 | 51.2 | > 100 |  | > 100 | 93.3 |  | 45.2 |  |  |  |  |  |  |  |  |  |  | 
5 | Oc1c(Cl)cc(C(c2cc(Cl)c(O)c(Cl)c2)C(c2cc(Cl)c(O)c(Cl)c2)c2cc(Cl)c(O)c(Cl)c2)cc1Cl | 23.9 | 18.7 | 12.4 | 16.3 | 13.8 |  | 17.2 | 36.9 | 36.4 | 7.75 | 2.59 | 3 | 3.51 | 3.35 | 3.23 | 3.73 | 4.54 | 57.4 |  | 
6 | Cc1cc(N2CCOCC2)nc(N(CCNc2ccnc3cc(Cl)ccc23)Cc2ccco2)n1 | 16.5 | 23.9 |  | 3.64 | 20.6 | > 100 | 35.4 | 8.69 | 39.1 | 3.41 | 3.72 |  | 1.68 | 12.7 | 2.8 | 6.2 | 2.64 | 10.1 | 4.38 | 3.18
7 | O=Cc1ncc(-c2ccc(C(F)(F)F)cc2)c(NC2CCCCCC2)n1 | > 10 | > 10 | > 10 | > 10 | > 10 | > 10 |  | > 10 | > 10 | > 10 | > 10 | > 10 | > 10 |  | > 10 | > 10 | > 10 | > 10 | > 10 | > 10
8 | NC1=NN(c2ccccc2)C(=O)C1C(=O)C(=O)NC1C2CC3CC(C2)CC1C3 (configuration not stated) | > 100 | > 100 |  | > 100 |  | > 100 | > 100 |  | > 100 |  |  |  |  |  |  |  |  |  |  | 
9 | O=[n+]1cnn([O-])c2ccccc21 | 37.1 |  | > 100 | > 100 | > 100 | > 100 | 91.7 | 54.4 | > 100 |  |  |  |  |  |  |  |  | > 100 |  | 
10 | NCC(=O)Nc1ccc(-n2nc(C(F)(F)F)cc2-c2ccc3c(ccc4ccccc43)c2)cc1 | 3.31 | 1.74 | 4.08 | 2.6 | 2.66 | 4.16 |  |  | 2.41 | 1.66 | 0.307 | 1.29 | 1.16 |  |  | 0.959 |  |  | 1.24 | 0.746
11 | Cc1c(NC(=O)CCCl)c(=O)oc2c(C)c3occc(=O)c3cc12 | > 100 | > 100 | > 100 | > 100 |  | > 100 | > 100 |  | > 100 |  |  |  |  |  |  |  |  | > 100 |  | 
12 | CCc1ccc(/C(C#N)=C/C=C/c2ccccc2)cc1 | > 100 | > 42.7 | > 69 | 10.5 | > 100 | > 100 |  | > 59.8 | > 100 | > 83.5 | 3.35 | 3.41 | 2.51 |  | 7.86 | 2.62 | 5.25 | > 100 | 3.15 | 3.11
13 | CCC[CH2][Sn]([CH2]CCC)([O]C(=O)c1cc(OC)c(OC)c(OC)c1)[O]C(=O)c1cc(OC)c(OC)c(OC)c1 | 2.47 | 9.21 | 4.5 | 3.19 |  | 0.862 | 4.69 |  | 13.8 | 1.09 | 2.96 | 0.445 | 1.6 | 1.95 |  | 3.59 |  |  |  | 0.25
14 | CC(=O)NC(ON1C(=O)COc2ccccc21)C(Cl)(Cl)Cl (configuration not stated) | > 100 | > 100 | > 100 | > 100 |  |  |  |  | > 100 |  |  |  |  |  |  |  |  |  |  | 
15 | CC(=O)c1cc2c3c(c1)c1cc4c(cc1c(=O)n3CC2)OCO4 | > 100 | 49.7 | > 100 | > 100 |  | > 100 | > 100 |  | > 100 |  |  |  |  |  |  |  |  |  |  | 
16 | CCOC(=O)CC(=O)N(c1ccc(OC)cc1)C(C(=O)OC)c1ccccc1 (configuration not stated) | > 100 | > 100 | > 100 | > 100 | > 100 | > 100 | > 100 |  | > 100 |  |  |  |  |  |  |  |  | > 100 |  | 
17 | Clc1cccc(Cn2cc(Cc3cn(Cc4cccc(Cl)c4)c4ccccc34)c3ccccc32)c1 | > 100 | > 100 | > 100 | > 100 | > 100 | > 100 |  | > 100 | > 100 | > 100 | 46.5 | > 100 | 86.2 |  | > 100 | > 100 | > 100 | > 100 | > 100 | > 100
18 | O=C(Nc1cccnc1)c1cccs1 | > 100 | > 100 |  | > 100 | > 100 |  | > 100 | > 100 | > 100 | > 100 | 6.6 |  | 5.04 | > 100 | 6.78 | 5.6 | > 100 | > 100 | > 100 | 
19 | O=S1Cc2ccccc2CS1 (configuration not stated) | 32 | 64.6 | 38.2 | > 100 |  |  | 44.9 |  | > 100 |  |  |  |  |  |  |  |  |  |  | 
